Data reported in patent publication US11136347B2, “Crystalline forms of a fatty acid bile acid conjugate, preparation method thereof and use thereof” (Crystal Pharmaceutical (Suzhou) Co., Ltd., priority 2017, dated 2021).

Tests used:
Type in all cases: physicochemical
[1] = Particle size distribution (Microtrac S3500 laser particle size analyzer, wet mode); settings: after ultrasonication for 30 seconds, dispersion medium Isopar G
Procedure: The particle size distribution data in the present disclosure were acquired by an S3500 laser particle size analyzer of Microtrac. Microtrac S3500 is equipped with an SDC (Sample Delivery Controller). The test was carried out in wet mode, and the dispersion medium is Isopar G. The parameters are as follows:
(§1) The particle size distribution of Form CS3 and the solid disclosed in CN100386339C were tested after ultrasonication for 30 seconds. The average particle size of Form CS3 is 26.3 μm, and D90 is 62.8 μm. The average particle size and D90 of the solid disclosed in prior art are 452.5 μm and 870.3 μm. Compared with prior art, Form CS3 has smaller particle size, which increases the specific surface area of the drug substance, improves the dissolution rate of drug, thereby facilitating drug absorption and further improving the bioavailability of the drug.
as §1, with “Form CS2” for “Form CS3”, “seconds. An” for “seconds. The”, “is 41.9” for “is 26.3”, “is 87.5 μm, while the” for “is 62.8 μm. The”

[2] = Hygroscopicity study by dynamic vapor sorption (DVS); settings: for The definition of hygroscopicity: Chinese Pharmacopoeia 2015 edition, 25° C. +/−1° C.; for The definition of hygroscopicity / Weight gain under 80% Relative Humidity: 80% RH; for Weight gain under 80% Relative Humidity: DVS
Procedure: Dynamic vapor sorption (DVS) was applied to test hygroscopicity of Form CS3 and the solid disclosed in CN100386339C with about 15 mg of samples. […] DVS plot of test hygroscopicity of Form CS3 is depicted in FIG. 1G. What's more, the crystalline form of Form CS3 didn't change after DVS test, which is depicted in FIG. 1H.
(§2) Dynamic vapor sorption (DVS) was applied to test hygroscopicity of Form CS2 with about 10 mg of samples. […] As depicted in FIG. 1I, weight gain of the solid disclosed in prior art under 80% RH is 2.44%. The hygroscopicity of Form CS2 is lower than that of prior art.
Dynamic vapor sorption (DVS) was applied to test hygroscopicity of Form CS5 with about 8 mg of samples. […] As depicted in FIG. 1I, weight gain of the solid disclosed in prior art under 80% RH is 2.44%. The hygroscopicity of Form CS5 is lower than that of prior art.
as §2, with “CS8” for “CS2”, “7” for “10”, “sample.” for “samples.”, “art. […] The XRPD patterns before and after DVS were shown in FIG. 4F, top: the XRPD pattern before DVS; bottom: XRPD pattern after DVS.” for “art.”

[3] = Stability study: storage in open dishes, crystalline form checked by XRPD; settings: for Form change: XRPD
Procedure: Solid samples of Form CS3 were stored under different conditions of 25° C./60% RH and 40° C./75% RH in open dishes for one year. Crystalline form was checked by XRPD.
Form CS8 were stored in open dishes under 25° C./60% RH, 40° C./75% RH and 60° C./75% RH conditions for three weeks, and sampled for XRPD test.

[4] = listed as solid disclosed in prior art

| Structure (SMILES) | D10 [1] | D50 [1] | D90 [1] | MV (average particle diameter calculated by volume) [1] | Weight gain under 80% Relative Humidity [2] | Form change before and after DVS test (XRPD) [2] | Time for which the crystalline form doesn't change (stable) ([3]; 25° C./60% RH) | Time for which the crystalline form doesn't change (stable) ([3]; 40° C./75% RH) | Time for which the crystalline form doesn't change (stable) ([3]; 60° C./75% RH) | The definition of hygroscopicity [2] | other results |
| --- | --- | --- | --- | --- | --- | --- | --- | --- | --- | --- | --- |
| CCCCCCCCCCCCCCCCCCCC(=O)N[C@H]1CC[C@@]2(C)[C@@H](C1)C[C@@H](O)[C@@H]1[C@@H]2C[C@H](O)[C@]2(C)[C@@H]([C@H](C)CCC(=O)O)CC[C@@H]12 [Form CS3, 3β-arachidylamido-7α,12α-dihydroxy-5β-cholan-24-oic acid] | 2.0 μm | 12.3 μm | 62.8 μm | 26.3 μm | 0.15% | didn't change | at least 3 weeks | at least 3 weeks | at least 3 weeks |  | Form change ([3]; 25° C./60% RH, one year): No form change; Form change ([3]; 40° C./75% RH, one year): No form change |
| CCCCCCCCCCCCCCCCCCCC(=O)N[C@H]1CC[C@@]2(C)[C@@H](C1)C[C@@H](O)[C@@H]1[C@@H]2C[C@H](O)[C@]2(C)[C@@H]([C@H](C)CCC(=O)O)CC[C@@H]12 [Form CS2, 3β-arachidylamido-7α,12α-dihydroxy-5β-cholan-24-oic acid] | 9.7 μm | 27.9 μm | 87.5 μm | 41.9 μm | 0.46% | No form change | at least 3 weeks | at least 3 weeks | at least 3 weeks | slightly hygroscopic (Increase in mass is less than 2 percent and equal to or greater than 0.2 percent) |  |

Continued, in another order:

| D10 [1] | D50 [1] | D90 [1] | MV (average particle diameter calculated by volume) [1] | Weight gain under 80% Relative Humidity [2] | Form change before and after DVS test (XRPD) [2] | Time for which the crystalline form doesn't change (stable) ([3]; 25° C./60% RH) | Time for which the crystalline form doesn't change (stable) ([3]; 40° C./75% RH) | Time for which the crystalline form doesn't change (stable) ([3]; 60° C./75% RH) | Structure (SMILES) | The definition of hygroscopicity [2] | other results |
| --- | --- | --- | --- | --- | --- | --- | --- | --- | --- | --- | --- |
| 95.0 μm | 398.8 μm | 870.3 μm | 452.5 μm | 2.44% |  |  |  |  | CCCCCCCCCCCCCCCCCCCC(=O)N[C@H]1CC[C@@]2(C)[C@@H](C1)C[C@@H](O)[C@@H]1[C@@H]2C[C@H](O)[C@]2(C)[C@@H]([C@H](C)CCC(=O)O)CC[C@@H]12 [Solid disclosed in CN100386339C, 3β-arachidylamido-7α,12α-dihydroxy-5β-cholan-24-oic acid, reference compound] |  | D90 ([1]; listed as prior art): 870.3 μm; MV (average particle diameter calculated by volume) ([1]; listed as prior art): 452.5 μm; D90 [1, 4]: 870.3 μm; MV (average particle diameter calculated by volume) [1, 4]: 452.5 μm; The definition of hygroscopicity [2, 4]: hygroscopic (Increase in mass is less than 15 percent and equal to or greater than 2 percent); Weight gain under 80% Relative Humidity ([2]; listed as amorphous solid): 2.44%; Weight gain under 80% Relative Humidity [2, 4]: 2.44%; Weight gain under 80% Relative Humidity ([2]; listed as solid of prior art): 2.44% |
|  |  |  |  | 0.40% | No form change |  |  |  | CCCCCCCCCCCCCCCCCCCC(=O)N[C@H]1CC[C@@]2(C)[C@@H](C1)C[C@@H](O)[C@@H]1[C@@H]2C[C@H](O)[C@]2(C)[C@@H]([C@H](C)CCC(=O)O)CC[C@@H]12 [Form CS8, 3β-arachidylamido-7α,12α-dihydroxy-5β-cholan-24-oic acid] |  | Form change ([3]; 25° C./60% RH, three weeks): no form change; Form change ([3]; 40° C./75% RH, three weeks): no form change; Form change ([3]; 60° C./75% RH, three weeks): no form change |
|  |  |  | 75.6 μm | 0.35% | No form change | at least 3 weeks | at least 3 weeks | at least 3 weeks | CCCCCCCCCCCCCCCCCCCC(=O)N[C@H]1CC[C@@]2(C)[C@@H](C1)C[C@@H](O)[C@@H]1[C@@H]2C[C@H](O)[C@]2(C)[C@@H]([C@H](C)CCC(=O)O)CC[C@@H]12 [Form CS5, 3β-arachidylamido-7α,12α-dihydroxy-5β-cholan-24-oic acid] | slightly hygroscopic (Increase in mass is less than 2 percent and equal to or greater than 0.2 percent) |  |
